The text below walks through data of publication PMC9380258, “Primary and secondary functions of HLA-E are determined by stability and conformation of the peptide-bound complexes” (Cell Reports, 2022).

Where two headings read alike, the source gives them in different places.

The test system of assay [1] is HLA-E. Details: method as in Walters et al. 2020. Conditions: sandwich ELISA (3D12 anti-HLA-E capture, anti-β2M detection) after peptide exchange; normalised signal as percentage of positive control VL9 signal; previously published; ref Walters et al. 2020; cited from earlier work. On the technique in general: ELISA stands for enzyme-linked immunosorbent assay.
The test system of assay [2] is HLA-E. It counts as binding, human. Conditions: for Tm (°C) 12M, HLA-E-β2M-peptide complex thermal stability: pH 8.
The target of assay [3] is HLA-E*01:03 (Homo sapiens, UniProt P13747). Kind of assay: SEC-SAXS of peptide-refolded HLA-E*01:03 complexes. In general terms: Size exclusion chromatography separates by hydrodynamic size, large species first.

Turning to EIEVDDDLIQK [EK11], the “ELISA Rank (%VL9 binding)” value in assay [1] is “minimal binding”.

In the case of EKQRESREK [EK9], the “ELISA Rank (%VL9 binding)” value in assay [1] was under 10%.

As to “QAISPRTLN [Neg Ctrl pep, reference compound]”, the “Tm (°C) 12M, HLA-E-β2M-peptide complex thermal stability” value (from here on “Tm (°C) 12M”) in assay [2] was determined as 31.8 °C. Besides, in assay [1], the “ELISA Rank (%VL9 binding)” value is reported as 0.3%.

Turning to RLPAKAPLL [Mtb44], the “Tm (°C) 12M” value in assay [2] stood at 50.6 °C. The “ELISA Rank (%VL9 binding)” value in assay [1] is recorded as 97%.

Regarding RMAATAQVL [Mtb14], the “Tm (°C) 12M” value in assay [2] worked out at 37.8 °C. In assay [3], the “Molecular envelope Vol %change” value is reported as −32%. Further, the “ELISA Rank (%VL9 binding)” value in assay [1] is reported as 48%.

Take RMYNPTNIL [RL9SIV]: in assay [2], the “Tm (°C) 12M” value came to 35.2 °C. In assay [3], the “Molecular envelope Vol %change” value is reported as −34%. In assay [1], the “ELISA Rank (%VL9 binding)” value was 22%.

Consider RMYSPTSIL [RL9HIV], for which the “Tm (°C) 12M” value in assay [2] was 38.2 °C. For the same sequence, the “Molecular envelope Vol %change” value in assay [3] (% change in model volume following 120 μM excess peptide addition) is −42%. The “ELISA Rank (%VL9 binding)” value in assay [1] is reported as 43%.

On to SQAPLPCVL [BZLF1], for which the “Tm (°C) 12M” value in assay [2] came out at 37.7 °C. In addition, in assay [3], the “Dmax (Å), maximum dimension” value is on record as 108 Å and the “Molecular envelope Vol (Å3)” value was 107,950 Å3. Moreover, the “ELISA Rank (%VL9 binding)” value in assay [1] is reported as 41%.

In the case of VMAPRTQLL [VL9 P7Q], the “drop in thermal stability” value in assay [2] turned out to be 6.6 °C.

For the sequence VMAPRTVLL [VL9, reference compound], the “Tm (°C) 12M” value in assay [2] was found to be 49.4 °C. Moreover, the “ELISA Rank (%VL9 binding)” value in assay [1] is 100%.
